Measurements: patent US20180264121A1, “CANNABINOID-CONTAINING ORAL PHARMACEUTICAL COMPOSITION, METHOD FOR PREPARING AND USING SAME” (PRATI-DONADUZZI & CIA LTDA., priority 2015, published 2018)

Test: Solubility of the API (quality-control specification)
Assay type: physicochemical
Description: Validated Analytical Methodology and Acceptable Limits to Ensure Identity, Quality and Purity of the API.

Q: Which SOLUBILITY (in chloroform) does the source give for `C=C(C)[C@@H]1CCC(C)=C[C@H]1c1c(O)cc(CCCCC)cc1O` [API, cannabidiol] here?
A: The SOLUBILITY was “SOLUBLE”.

Q: And the SOLUBILITY (in ethanol 96%)?
A: The SOLUBILITY was “SOLUBLE”.

Q: What about the SOLUBILITY (in hexane) of the same molecule?
A: The SOLUBILITY was “SLIGHTLY SOLUABLE IN HEXANE”.

Q: What about the SOLUBILITY (in purified water) of the same molecule?
A: The SOLUBILITY was “INSOLUBLE”.
